# Assay results from patent US20020111274A1, “1-alkyl-3-[1-(substituted phenyl) benzotriazol-6-yl] uracils” (BASF Aktiengesellschaft, priority 2000, published 2002).
# Legend:
# [1] = test system: CASOB Sicklepod; assay: Preemergence herbicidal evaluation, CASOB; format: in vivo, Cassia obtusifolia, L.; design: scale not given here; details: preemergence
# Procedure, shortened: (§1)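 Visual ratings were taken four to five weeks after application. Before that, cups sown with seed in potting soil received a spray of compound dissolved in aqueous acetone, equivalent to about 0.013 to 0.800 kg/ha, and stood on greenhouse benches under conventional care.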
# [2] = test system: ECHOG Barnyardgrass; assay: Preemergence herbicidal evaluation, ECHOG; format: in vivo, Echinochloa crus-galli, (L.) Beau; design: scale not given here; details: preemergence
# Procedure, shortened: as §1
# [3] = test system: CHEAL Lambsquarters, Common; assay: Postemergence herbicidal evaluation, CHEAL; format: in vivo, Chenopodium album, L.; design: scale not given here; details: postemergence spray, rated about two-three weeks after treatment
# Procedure, shortened: (§2)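 Ratings from greenhouse plants scored about two to three weeks after a foliar spray; data from multiple tests averaged. Seedlings about two weeks old received roughly 0.006–0.400 kg/ha active compound in 80/20 acetone/water with 1.0% methylated seed oil.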
# [4] = test system: IPOHE Morningglory, Ivyleaf; assay: Postemergence herbicidal evaluation, IPOHE; format: in vivo, Ipomoea hederacea, (L.) Jacq.; design: scale not given here; details: postemergence spray, rated about two-three weeks after treatment
# Procedure, shortened: as §2
# [5] = test system: CASOB Sicklepod; assay: Postemergence herbicidal evaluation, CASOB; format: in vivo, Cassia obtusifolia, L.; design: scale not given here; details: postemergence spray, rated about two-three weeks after treatment
# Procedure, shortened: as §2
# [6] = test system: ORYSAT Rice, Tebonnet; assay: Postemergence herbicidal evaluation, ORYSAT; format: in vivo, Oryza sativa, (L.); design: scale not given here; details: postemergence spray, rated about two-three weeks after treatment
# Procedure, shortened: as §2
# [7] = test system: ZEAMX Corn, Field; assay: Postemergence herbicidal evaluation, ZEAMX; format: in vivo, Zea mays, L. (Sammel-Bezeichnung); design: scale not given here; details: postemergence spray, rated about two-three weeks after treatment
# Procedure, shortened: as §2
# [8] = test system: ABUTH Velvetleaf; assay: Preemergence herbicidal evaluation, ABUTH; format: in vivo, Abutilon theophrasti, Medic.; design: scale not given here; details: preemergence
# Procedure, shortened: as §1
# [9] = test system: ZEAMX Corn, Field; assay: Preemergence herbicidal evaluation, ZEAMX; format: in vivo, Zea mays, L. (Sammel-Bezeichnung); design: scale not given here; details: preemergence
# Procedure, shortened: as §1
# [10] = test system: ECHOG Barnyardgrass; assay: Postemergence herbicidal evaluation, ECHOG; format: in vivo, Echinochloa crus-galli, (L.) Beau; design: scale not given here; details: postemergence spray, rated about two-three weeks after treatment
# Procedure, shortened: as §2
# [11] = test system: ABUTH Velvetleaf; assay: Postemergence herbicidal evaluation, ABUTH; format: in vivo, Abutilon theophrasti, Medic.; design: scale not given here; details: postemergence spray, rated about two-three weeks after treatment
# Procedure, shortened: as §2
# [12] = test system: GALAP Galium; assay: Postemergence herbicidal evaluation, GALAP; format: in vivo, Galium aparine; design: scale not given here; details: postemergence spray, rated about two-three weeks after treatment
# Procedure, shortened: as §2
# [13] = test system: AMBEL Ragweed, Common; assay: Preemergence herbicidal evaluation, AMBEL; format: in vivo, Ambrosia artemisifolia, L.; design: scale not given here; details: preemergence
# Procedure, shortened: as §1
# [14] = test system: IPOHE Morningglory, Ivyleaf; assay: Preemergence herbicidal evaluation, IPOHE; format: in vivo, Ipomoea hederacea, (L.) Jacq.; design: scale not given here; details: preemergence
# Procedure, shortened: as §1
# [15] = test system: TRZAWR Wheat, Winter, cv Riband; assay: Postemergence herbicidal evaluation, TRZAWR; format: in vivo, Triticum aestivum; design: scale not given here; details: postemergence spray, rated about two-three weeks after treatment
# Procedure, shortened: as §2
# [16] = test system: AMBEL Ragweed, Common; assay: Postemergence herbicidal evaluation, AMBEL; format: in vivo, Ambrosia artemisifolia, L.; design: scale not given here; details: postemergence spray, rated about two-three weeks after treatment
# Procedure, shortened: as §2
# [17] = test system: ORYSAT Rice, Tebonnet; assay: Preemergence herbicidal evaluation, ORYSAT; format: in vivo, Oryza sativa, (L.); design: scale not given here; details: preemergence
# Procedure, shortened: as §1
# [18] = test system: CHEAL Lambsquarters, Common; assay: Preemergence herbicidal evaluation, CHEAL; format: in vivo, Chenopodium album, L.; design: scale not given here; details: preemergence
# Procedure, shortened: as §1
# [19] = test system: SETVI Foxtail, Green; assay: Postemergence herbicidal evaluation, SETVI; format: in vivo, Setaria viridis, (L.) Beau; design: scale not given here; details: postemergence spray, rated about two-three weeks after treatment
# Procedure, shortened: as §2
# [20] = test system: SETVI Foxtail, Green; assay: Preemergence herbicidal evaluation, SETVI; format: in vivo, Setaria viridis, (L.) Beau; design: scale not given here; details: preemergence
# Procedure, shortened: as §1
# [21] = test system: GLXMAW Soybean, Williams; assay: Postemergence herbicidal evaluation, GLXMAW; format: in vivo, Glycine max, (L.) Merr. cv Williams; design: scale not given here; details: postemergence spray, rated about two-three weeks after treatment
# Procedure, shortened: as §2
# [22] = test system: TRZAWR Wheat, Winter, cv Riband; assay: Preemergence herbicidal evaluation, TRZAWR; format: in vivo, Triticum aestivum; design: scale not given here; details: preemergence
# Procedure, shortened: as §1
# [23] = test system: GALAP Galium; assay: Preemergence herbicidal evaluation, GALAP; format: in vivo, Galium aparine; design: scale not given here; details: preemergence
# Procedure, shortened: as §1
# [24] = test system: GLXMAW Soybean, Williams; assay: Preemergence herbicidal evaluation, GLXMAW; format: in vivo, Glycine max, (L.) Merr. cv Williams; design: scale not given here; details: preemergence
# Procedure, shortened: as §1
smiles,measurement,setting,value
"COc1ccc(C)cc1-n1nnc2cc(F)c(-n3c(=O)cc(C(F)(F)F)n(C)c3=O)cc21 [Example 18, 3-[5-fluoro-1-(2-methoxy-5-methylphenyl)-1H-1,2,3-benzotriazol-6-yl]-1-methyl-6-(trifluoromethyl)-2,4(1H,3H)-pyrimidinedione]",CASOB herbicidal rating,[1]; rate 0.016 kg/ha,2.5
same,CASOB herbicidal rating,[1]; rate 0.032 kg/ha,0.0
same,CASOB herbicidal rating,[1]; rate 0.062 kg/ha,0.5
same,CASOB herbicidal rating,[1]; rate 0.125 kg/ha,5.0
same,ECHCG herbicidal rating,[2]; rate 0.016 kg/ha,6.0
same,ECHCG herbicidal rating,[2]; rate 0.032 kg/ha,8.0
same,ECHCG herbicidal rating,[2]; rate 0.062 kg/ha,9.0
same,ECHCG herbicidal rating,[2]; rate 0.125 kg/ha,9.0
same,Postemergence herbicidal rating CHEAL,[3]; 0.008 kg/ha,1.0
same,Postemergence herbicidal rating CHEAL,[3]; 0.016 kg/ha,7.0
same,Postemergence herbicidal rating CHEAL,[3]; 0.032 kg/ha,9.0
same,Postemergence herbicidal rating CHEAL,[3]; 0.062 kg/ha,9.0
same,Postemergence herbicidal rating IPOHE,[4]; 0.008 kg/ha,9.0
same,Postemergence herbicidal rating IPOHE,[4]; 0.016 kg/ha,9.0
same,Postemergence herbicidal rating IPOHE,[4]; 0.032 kg/ha,9.0
same,Postemergence herbicidal rating IPOHE,[4]; 0.062 kg/ha,9.0
same,Postemergence herbicidal rating CASOB,[5]; 0.008 kg/ha,0.0
same,Postemergence herbicidal rating CASOB,[5]; 0.016 kg/ha,7.0
same,Postemergence herbicidal rating CASOB,[5]; 0.032 kg/ha,6.0
same,Postemergence herbicidal rating CASOB,[5]; 0.062 kg/ha,7.0
same,Postemergence herbicidal rating ORYSAT,[6]; 0.008 kg/ha,3.5
same,Postemergence herbicidal rating ORYSAT,[6]; 0.016 kg/ha,4.0
same,Postemergence herbicidal rating ORYSAT,[6]; 0.032 kg/ha,5.5
same,Postemergence herbicidal rating ORYSAT,[6]; 0.062 kg/ha,5.5
same,Postemergence herbicidal rating ZEAMX,[7]; 0.008 kg/ha,4.5
same,Postemergence herbicidal rating ZEAMX,[7]; 0.016 kg/ha,5.5
same,Postemergence herbicidal rating ZEAMX,[7]; 0.032 kg/ha,6.0
same,Postemergence herbicidal rating ZEAMX,[7]; 0.062 kg/ha,6.0
same,ABUTH herbicidal rating,[8]; rate 0.016 kg/ha,6.0
same,ABUTH herbicidal rating,[8]; rate 0.032 kg/ha,9.0
same,ABUTH herbicidal rating,[8]; rate 0.062 kg/ha,9.0
same,ABUTH herbicidal rating,[8]; rate 0.125 kg/ha,9.0
same,ZEAMX herbicidal rating,[9]; rate 0.016 kg/ha,5.0
same,ZEAMX herbicidal rating,[9]; rate 0.032 kg/ha,5.0
same,ZEAMX herbicidal rating,[9]; rate 0.062 kg/ha,7.0
same,ZEAMX herbicidal rating,[9]; rate 0.125 kg/ha,8.5
same,Postemergence herbicidal rating ECHCG,[10]; 0.008 kg/ha,0.0
same,Postemergence herbicidal rating ECHCG,[10]; 0.016 kg/ha,2.0
same,Postemergence herbicidal rating ECHCG,[10]; 0.032 kg/ha,2.0
same,Postemergence herbicidal rating ECHCG,[10]; 0.062 kg/ha,4.0
same,Postemergence herbicidal rating ABUTH,[11]; 0.008 kg/ha,9.0
same,Postemergence herbicidal rating ABUTH,[11]; 0.016 kg/ha,9.0
same,Postemergence herbicidal rating ABUTH,[11]; 0.032 kg/ha,9.0
same,Postemergence herbicidal rating ABUTH,[11]; 0.062 kg/ha,9.0
same,Postemergence herbicidal rating GALAP,[12]; 0.008 kg/ha,1.0
same,Postemergence herbicidal rating GALAP,[12]; 0.016 kg/ha,3.0
same,Postemergence herbicidal rating GALAP,[12]; 0.032 kg/ha,5.0
same,Postemergence herbicidal rating GALAP,[12]; 0.062 kg/ha,5.0
same,AMBEL herbicidal rating,[13]; rate 0.016 kg/ha,4.0
same,AMBEL herbicidal rating,[13]; rate 0.032 kg/ha,6.0
same,AMBEL herbicidal rating,[13]; rate 0.062 kg/ha,9.0
same,AMBEL herbicidal rating,[13]; rate 0.125 kg/ha,8.0
same,melting point,,175 to 181 °C
same,IPOHE herbicidal rating,[14]; rate 0.016 kg/ha,7.5
same,IPOHE herbicidal rating,[14]; rate 0.032 kg/ha,9.0
same,IPOHE herbicidal rating,[14]; rate 0.062 kg/ha,8.0
same,IPOHE herbicidal rating,[14]; rate 0.125 kg/ha,9.0
same,Postemergence herbicidal rating TRZAWR,[15]; 0.008 kg/ha,3.5
same,Postemergence herbicidal rating TRZAWR,[15]; 0.016 kg/ha,4.5
same,Postemergence herbicidal rating TRZAWR,[15]; 0.032 kg/ha,5.5
same,Postemergence herbicidal rating TRZAWR,[15]; 0.062 kg/ha,4.5
same,Postemergence herbicidal rating AMBEL,[16]; 0.008 kg/ha,1.0
same,Postemergence herbicidal rating AMBEL,[16]; 0.016 kg/ha,6.0
same,Postemergence herbicidal rating AMBEL,[16]; 0.032 kg/ha,6.0
same,Postemergence herbicidal rating AMBEL,[16]; 0.062 kg/ha,9.0
same,ORYSAT herbicidal rating,[17]; rate 0.016 kg/ha,3.0
same,ORYSAT herbicidal rating,[17]; rate 0.032 kg/ha,6.0
same,ORYSAT herbicidal rating,[17]; rate 0.062 kg/ha,6.0
same,ORYSAT herbicidal rating,[17]; rate 0.125 kg/ha,6.0
same,CHEAL herbicidal rating,[18]; rate 0.016 kg/ha,9.0
same,CHEAL herbicidal rating,[18]; rate 0.032 kg/ha,9.0
same,CHEAL herbicidal rating,[18]; rate 0.062 kg/ha,9.0
same,CHEAL herbicidal rating,[18]; rate 0.125 kg/ha,9.0
same,Postemergence herbicidal rating SETVI,[19]; 0.008 kg/ha,0.0
same,Postemergence herbicidal rating SETVI,[19]; 0.016 kg/ha,5.0
same,Postemergence herbicidal rating SETVI,[19]; 0.032 kg/ha,9.0
same,Postemergence herbicidal rating SETVI,[19]; 0.062 kg/ha,9.0
same,SETVI herbicidal rating,[20]; rate 0.016 kg/ha,9.0
same,SETVI herbicidal rating,[20]; rate 0.032 kg/ha,9.0
same,SETVI herbicidal rating,[20]; rate 0.062 kg/ha,9.0
same,SETVI herbicidal rating,[20]; rate 0.125 kg/ha,9.0
same,Postemergence herbicidal rating GLXMAW,[21]; 0.008 kg/ha,4.5
same,Postemergence herbicidal rating GLXMAW,[21]; 0.016 kg/ha,4.5
same,Postemergence herbicidal rating GLXMAW,[21]; 0.032 kg/ha,6.5
same,Postemergence herbicidal rating GLXMAW,[21]; 0.062 kg/ha,6.0
same,TRZAWR herbicidal rating,[22]; rate 0.016 kg/ha,2.0
same,TRZAWR herbicidal rating,[22]; rate 0.032 kg/ha,3.0
same,TRZAWR herbicidal rating,[22]; rate 0.062 kg/ha,6.0
same,TRZAWR herbicidal rating,[22]; rate 0.125 kg/ha,7.0
same,GALAP herbicidal rating,[23]; rate 0.032 kg/ha,1.0
same,GALAP herbicidal rating,[23]; rate 0.062 kg/ha,5.0
same,GALAP herbicidal rating,[23]; rate 0.125 kg/ha,9.0
same,GLXMAW herbicidal rating,[24]; rate 0.016 kg/ha,3.0
same,GLXMAW herbicidal rating,[24]; rate 0.032 kg/ha,4.5
same,GLXMAW herbicidal rating,[24]; rate 0.062 kg/ha,7.5
same,GLXMAW herbicidal rating,[24]; rate 0.125 kg/ha,9.0
